The values below come from PubChem BioAssay (NCI).

Where “and” joins values, the source holds several entries; their conditions need not be identical. Equal entries are not always repeated.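 Results reflect a 48-hour exposure of cells in 96-well plates to compound at five concentrations. Here, GI50 denotes the concentration required for 50% inhibition of growth. The concentration for full growth arrest is given as TGI.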

Test systems include 786-0 renal; HCT-116 colon; HOP-62 NSCLC; KM12 colon; MCF7 breast; MDA-MB-435; SF-268 CNS; SR leukemia; CAKI-1 renal; UACC-257 melanoma.
Holding throughout (experiment): DTP human tumour cell line panel, 48 h

As a reminder, the GI50 is the concentration that inhibits growth by half. The term TGI denotes the concentration giving total growth inhibition. Regarding `CCN(CC)CCN1C(=O)c2c(c3c4cccc(Cl)c4n(C4OC(CO)C(OC)C(O)C4O)c3c3[nH]c4c(Cl)cccc4c23)C1=O` (stereo not given), the GI50 in the assay on 786-0 renal is below 0.0001 µM; in the assay on HCT-116 colon it was below 0.0001 µM; with HOP-62 NSCLC, 0.000125 µM and < 0.0318 µM and < 0.01 µM; with KM12 colon, 0.000316 µM and < 0.0231 µM and < 0.01 µM; in the assay with SF-268 CNS it was below 0.0001 µM; in the assay with SR leukemia, below 0.0001 µM. For the same compound, the TGI in the assay on MCF7 breast was determined as 0.199 µM; in the assay with MDA-MB-435, 0.217 µM.
For the compound `Cc1ccc2c(-c3ccnc(Nc4cccc(C(F)(F)F)c4)n3)c(-c3ccccc3)nn2n1`, the GI50 with 786-0 renal was 4.67 µM; in the assay on CAKI-1 renal it was 2.83 µM; in the assay with HCT-116 colon, 4.32 µM; in the assay with HOP-62 NSCLC it was 14.4 µM; with KM12 colon, 11.1 µM; with MCF7 breast, 2.85 µM. Further, the values for the GI50 in the assay with MDA-MB-435, in the assay on SF-268 CNS and in the assay with UACC-257 melanoma were 6.77 µM, above 15.2 µM and 8.31 µM, respectively. The TGI in the assay with 786-0 renal was above 15.1 µM; in the assay on CAKI-1 renal it was above 25 µM; in the assay on HCT-116 colon it was above 12.2 µM; in the assay on HOP-62 NSCLC it was above 25 µM; with KM12 colon, above 18.3 µM; in the assay with MCF7 breast it was above 25 µM. The TGI is above 25 µM in the assay on MDA-MB-435, above 25 µM in the assay on SF-268 CNS and above 16.6 µM in the assay with UACC-257 melanoma.
In the case of `CCCCCCCCCCCCCCCC(=O)OCC1OC(OCCCC)[C@H](O[C@@H]2OC(C)C(OC(=O)CCC)C(O)C2O)C(O)C1O` (stereo not given in full), the GI50 in the assay with 786-0 renal is 16.7 µM; in the assay on CAKI-1 renal it was 12.9 µM; with HCT-116 colon, 15.4 µM; with HOP-62 NSCLC it was 16.8 µM; in the assay on KM12 colon, 17.1 µM; in the assay on MCF7 breast, 30.1 µM. Besides, the GI50 with MDA-MB-435 is 13.3 µM; with SF-268 CNS it was 18.4 µM; in the assay on UACC-257 melanoma, 22.6 µM. Further, the TGI in the assay with 786-0 renal is 30.8 µM; with CAKI-1 renal it was 26.2 µM; with HCT-116 colon, 28.7 µM; in the assay with HOP-62 NSCLC, 30.8 µM; in the assay on KM12 colon, 31.9 µM; in the assay with MCF7 breast, above 100 µM. The TGI is 27.3 µM in the assay on MDA-MB-435, 42.4 µM in the assay on SF-268 CNS and 61.4 µM in the assay on UACC-257 melanoma.
Turning to `Cc1cc2c3c(nc4ccccc42)C(=O)c2cccnc2-c3n1`, the GI50 with 786-0 renal was 0.148 µM; in the assay on CAKI-1 renal, 0.404 µM; in the assay on HCT-116 colon it was below 0.0416 µM; in the assay with HOP-62 NSCLC, 0.316 µM; with KM12 colon it was 0.142 µM; in the assay on MCF7 breast, 0.0212 µM. For the same compound, the GI50 in the assay on MDA-MB-435 is 0.162 µM; in the assay with SF-268 CNS, 0.786 µM; in the assay with UACC-257 melanoma it was 0.169 µM. The TGI is 0.823 µM in the assay on 786-0 renal; 2.67 µM with CAKI-1 renal; 0.11 µM in the assay with HCT-116 colon; 2.23 µM in the assay on HOP-62 NSCLC; 0.529 µM in the assay on KM12 colon; 0.156 µM with MCF7 breast. For the same compound, the total growth inhibition concentration (TGI) in the assay on MDA-MB-435 is 0.332 µM; with SF-268 CNS, above 19.9 µM; with UACC-257 melanoma, 0.55 µM.
As to `COc1cc(C(=O)/C=C/c2cccnc2Nc2ccc(Cl)cc2)cc(OC)c1OC`, the GI50 in the assay on 786-0 renal was 1.46 µM; in the assay with CAKI-1 renal, 1.75 µM; with HCT-116 colon it was 0.568 µM; in the assay with HOP-62 NSCLC it was 1.65 µM; in the assay with KM12 colon, 1.83 µM; in the assay with MCF7 breast, 1.02 µM. Also, the GI50 is 1.49 µM with MDA-MB-435, 1.72 µM with SF-268 CNS and 1.5 µM in the assay with UACC-257 melanoma. Further, the TGI in the assay with 786-0 renal came out at 2.78 µM; in the assay on CAKI-1 renal it was 4.04 µM; in the assay on HCT-116 colon, 1.84 µM; in the assay on HOP-62 NSCLC it was 3.13 µM; in the assay on KM12 colon it was 3.55 µM; in the assay on MCF7 breast it was 2.35 µM. Also, the TGI in the assay with MDA-MB-435 came to 3.36 µM; in the assay with SF-268 CNS, 3.19 µM; in the assay with UACC-257 melanoma it was 2.92 µM.
Take `COc1cc2c3c(n(CCCNCCCCN)c(=O)c2cc1OC)-c1cc2c(cc1C3=O)OCO2`: the GI50 in the assay with 786-0 renal was 2.27 µM; in the assay on HCT-116 colon it was 1.85 µM; with HOP-62 NSCLC, 0.836 µM; in the assay on KM12 colon, 4.58 µM; in the assay on MCF7 breast, 0.0829 µM; in the assay on MDA-MB-435 it was 6.11 µM. Also, the figures for the GI50 in the assay with SF-268 CNS and in the assay on UACC-257 melanoma were 3.1 µM and 16.8 µM, respectively. The TGI with 786-0 renal is 20.5 µM; with CAKI-1 renal it was 15 µM; in the assay with HCT-116 colon, 15.2 µM; in the assay on HOP-62 NSCLC, 32.5 µM; in the assay on KM12 colon, 21.7 µM; with MCF7 breast it was 22.5 µM. Moreover, the figures for the TGI with MDA-MB-435, in the assay on SF-268 CNS and in the assay on UACC-257 melanoma were 20.4 µM, 10.3 µM and 54.7 µM, respectively.
On to `COc1cccc(N2C(=N)/C(=C3\Nc4ccccc4S3)CC2=O)c1`, for which the GI50 is 4.91 µM with 786-0 renal; 8.21 µM with CAKI-1 renal; 6.22 µM in the assay with HCT-116 colon; 2.73 µM with HOP-62 NSCLC; 7.48 µM in the assay with KM12 colon; 6.65 µM with MCF7 breast. For the same compound, the results for the GI50 with MDA-MB-435, in the assay on SF-268 CNS and with UACC-257 melanoma were above 100 µM, 5.22 µM and above 100 µM, respectively. In addition, the TGI in the assay on 786-0 renal is above 100 µM; with CAKI-1 renal it was above 100 µM; with HCT-116 colon, above 100 µM; in the assay with HOP-62 NSCLC, 28.1 µM; in the assay with KM12 colon, above 100 µM; in the assay with MCF7 breast, above 100 µM. For the same compound, the TGI in the assay on MDA-MB-435, with SF-268 CNS and in the assay with UACC-257 melanoma was above 100 µM throughout.
